What was measured:
CAL33 xenograft tumors = assay: Immunohistochemistry of CAL33 CDX tumor samples; type: in vivo, mice; conditions: alpelisib 40 mg/kg QD, tipifarnib 60 mg/kg BID, or the combination, 10 days
Description: CAL33 xenograft tumors treated with alpelisib (40 mg/kg QD), tipifarnib (60 mg/kg BID), or the combination, for 10 days were subjected to immunohistochemistry analysis to assess levels of cell proliferation and apoptosis.
Fixation of tumor samples was performed by zinc formalin (Z-Fix, Anatech) and tissues were paraffin-embedded; samples were sectioned into 5 μm sections. Samples were deparaffinized, hydrated with graded ethanols, and the endogenous peroxidase was blocked with 3% H2O2 in 70% ethanol. After washing with distilled water, antigen retrieval was performed with IHC antigen retrieval solution (ThermoFisher Scientific, #00-4955-58) in a microwave at the high setting. Slides were then washed with water and PBS, and incubated with the primary and secondary antibodies, and developed with the ABC reagent (Vector Laboratories, #PK-6100) and the DAB substrate kit (Vector Laboratories, #SK-4105). The following antibodies were used: Cleaved PARP (Cell Signaling Technology #9661, 1:400 dilution) and Ki67 (DACO #M7240, 1:50). Percent positive cells in three fields per slide were counted using a microscope.

[1] = tested on: PIK3CA-mutant CAL33 cells; assay: Immunoblots of MAPK/PI3K pathway components and apoptotic markers; type: cell-based; conditions: alpelisib 0, 1, 2, 6, 24 hours, absence or presence of tipifarnib (48-hour treatment)
Description: (§1) Immunoblots of MAPK/PI3K pathway components and apoptotic markers in PIK3CA-mutant CAL33 cells treated with alpelisib (BYL-719) for 0, 1, 2, 6, and 24 hours in the absence or presence of tipifarnib (48-hour treatment) are shown in FIG. 2A. A shift in Rheb and HRas protein mobility is indicative of defarnesylation. Generally, immunoblotting was performed as follows: Cell lysates were prepared on ice by washing cells once with PBS, resuspending in 1× cell lysis buffer (Cell Signaling Technology #9803) or RIPA buffer supplemented with Halt protease inhibitor cocktail (Thermo Scientific #78430) and briefly sonicated or vortexed. Lysates were cleared by centrifugation (maximum speed, 10 min) and protein concentration was determined by BCA assay (Pierce). Lysate (20-60 μg) was loaded onto 4-12% Bis-Tris gels (NuPAGE, Invitrogen) for electrophoresis and immunoblotting. When RAS was evaluated, active RAS was detected using Thermo Scientific kit #16117. Membrane and cytosolic fractions were isolated using the Mem-PER Plus Membrane Protein Extraction Kit (Thermo Scientific kit #89842).
However, by 24 hours, phosphorylation of these proteins partially or completely rebounded. […]

BICR22 cells = assay: as above; type: cell-based; conditions: BICR22 (PIK3CA copy gain); alpelisib 0, 1, 24 hours, absence or presence of tipifarnib (48-hour treatment)
Description: as §1
(§2) Immunoblots of MAPK/PI3K pathway components and apoptotic markers in high HRas protein (i.e., overexpression of wild-type HRas protein) HNSCC cell line SCC9 cells and in PIK3CA copy gain (amplified) BICR22 cells are shown in FIG. 2B and FIG. 2D, respectively. […]

SCC9 cells = assay: as above; type: cell-based; conditions: SCC9 (HRas high); alpelisib 0, 1, 24 hours, absence or presence of tipifarnib (48-hour treatment)
Description: as §1, §2

[2] = tested on: PIK3CA-mutant CAL33 tumors; assay: Immunoblot and immunohistochemistry of treated CAL33 xenograft tumors; type: in vivo, athymic mice; conditions: tipifarnib 60 mg/kg BID, 10 days
Description: To assess the underlying mechanism of tumor regression, the PIK3CA-mutant CAL33 tumors were treated with tipifarnib (60 mg/kg BID), alpelisib (40 mg/kg QD), or the combination for 10 days. On day 10, tumors were collected from all cohorts at 2 and 24 hours after the final dose of alpelisib for immunohistochemistry and immunoblot analysis. […] Addition of tipifarnib blocked this rebound and promoted cell cycle arrest as indicated by decreased Rb phosphorylation.

HSC2 (H1047R) = assay: PI3K-mTOR signaling by immunoblot; type: cell-based; conditions: 1 h and 24 h
Description: PI3K-mTOR Signaling in PIK3CA-mutant HSC2 Cell Line. The PIK3CA-mutant HNSCC cell line HSC2 (H1047R) was treated with the tipifarnib-alpelisib combination and mTOR activity was assessed by immunoblot.

[3] = tested on: cell lines harboring PIK3CA mutation or amplification; assay: Growth of PIK3CA-altered HNSCC cell lines, monolayer and spheroid cultures; type: cell-based
Description: (§3) Because a farnesyltransferase inhibitor may block hyperactivated growth factor signaling at multiple nodes, including HRas protein and Rheb protein, the impact of tipifarnib on the growth of PIK3CA-altered HNSCC models and HRAS-mutant HNSCC models in vitro and in vivo was examined. For tumor spheroid growth assays, cells were resuspended in 4% Matrigel and seeded in 96-well ultralow attachment plates at a density of 1-1.5K cells/well. The following day, spheroids were treated with alpelisib and/or tipifarnib and baseline growth measured using 3D Cell Titer Glo reagent (Promega). Spheroids were incubated with drug for 7 days and a final CTG reading taken. Percentage growth was calculated by[(Ti−Tz)/(C−Tz)]×100 for concentrations for which Ti>/=Tz and [(Ti−Tz)/Tz]×100 for concentrations for which Ti<Tz, where Tz=time zero, C=control growth, and Ti=test growth at each drug concentration. […] Consistently, in PIK3CA mutant/amplified PDX models, the tipifarnib-alpelisib doublet led to deeper antitumor responses compared to alpelisib monotherapy.

Rheb protein = assay: Lysosome extraction by density gradient ultracentrifugation and immunoblot; type: cell-based; conditions: CAL33 cells, versus DMSO
Text: Active Rheb protein is thought to localize to lysosomes to regulate mTOR activity. Density gradient ultracentrifugation was utilized to extract lysosomes from CAL33 cells treated with DMSO or tipifarnib. Lysosomes were lysed and subjected to immunoblot analysis alongside whole-cell lysate (WCL), FIG. 4. LAMP1 is a lysosome-specific marker and is used in this assay.

HRAS and RHEB = assay: Subcellular fractionation and immunoblot of cytosol and membrane fractions; type: cell-based; conditions: CAL33, BICR22, and SCC9 cells; 1 μM tipifarnib (48 hr)
Description: as §1
CAL33, BICR22, and SCC9 cells were treated with DMSO, 250 nM alpelisib (24 hr), 1 μM tipifarnib (48 hr), or the combination.

UM-SCC-17B (Q61L) = assay: HRAS-mutant cell line spheroid growth, checkerboard, 7 days; type: cell-based
Description: as §3
Inhibition of HRAS-mutant cell line spheroid growth by tipifarnib and/or alpelisib. The HRAS-mutant HNSCC cell line UM-SCC-17B (Q61L) was cultured as 3D tumor spheroids and treated with tipifarnib and/or alpelisib in a checkerboard dose-response fashion for 7 days.

[4] = target: geranylgeranyltransferase type 1 (Homo sapiens, UniProt P53609); conditions: cited from earlier work

| Compound | Cleaved PARP (% positive cells) (CAL33 xenograft tumors) | Ki67 (% positive cells) (CAL33 xenograft tumors) | Pathway activity, cell cycle and apoptotic markers (immunoblot) [1] | Pathway activity, cell cycle and apoptotic markers (immunoblot) (BICR22 cells) | Pathway activity, cell cycle and apoptotic markers (immunoblot) (SCC9 cells) | mTOR activity (4EBP1, S6 phosphorylation) ([2]; alpelisib 40 mg/kg QD, tumors collected 2 and 24 hours after final alpelisib dose) | mTOR activity (phospho-S6K and S6) and PARP cleavage (HSC2 (H1047R)) | Proliferation / cytotoxicity [3] | Lysosomal localization of Rheb protein (Rheb protein) | Farnesylation of HRAS and RHEB (immunoblot) [2] | Membrane localization of HRAS and RHEB (HRAS and RHEB) | Cytotoxicity in 3D tumor spheroids (UM-SCC-17B (Q61L)) | Inhibition of geranylgeranyltransferase type 1 [4] |
| --- | --- | --- | --- | --- | --- | --- | --- | --- | --- | --- | --- | --- | --- |
| Cc1nc(NC(=O)N2CCC[C@H]2C(N)=O)sc1-c1ccnc(C(C)(C)C(F)(F)F)c1 [Alpelisib, (2S)—N^1-[4-Methyl-5-[2-(2,2,2-trifluoro-1,1-dimethylethyl)-4-pyridinyl]-2-thiazolyl]-1,2-pyrrolidinedicarboxamide] | 5.1 ± 0.4 | 53.7 ± 9.8 | rapidly inhibited the activity of AKT, mTOR, and ERK | transiently reduced | transiently reduced | transiently inhibited mTOR activity | transiently inhibited |  |  |  |  |  |  |
| Cn1cncc1[C@@](N)(c1ccc(Cl)cc1)c1ccc2c(c1)c(-c1cccc(Cl)c1)cc(=O)n2C [Tipifarnib, (R)-6-[amino(4-chlorophenyl)(1-methyl-1H-imidazol-5-yl)methyl]-4-(3-chlorophenyl)-1-methyl-2(1H)-quinolinone] | 4.9 ± 2.1 | 35.1 ± 8.1 |  |  |  |  |  | reduced proliferation of both monolayer and spheroid cultures | markedly diminished the lysosomal localization of Rheb protein | resulted in defarnesylation of HRAS and RHEB | resulted in the membrane delocalization of the majority of HRAS and RHEB in all three cell types | induced cytotoxicity | not an inhibitor of geranylgeranyltransferase type 1 |

— patent US20240024301A1, “METHODS OF TREATING HEAD AND NECK SQUAMOUS CELL CARCINOMA” (Kura Oncology, Inc., priority 2022, published 2024)
